Measured values from the NIST ThermoML archive (doi:10.1021/acs.jced.5b00662).
± gives the expanded uncertainty stated by the source.

Experiment: xn = mol fraction of the nth substance listed
Conditions: 100 kPa, Liquid; for speed of sound: Sing-around technique in a fixed-path interferometer; for mass density: Vibrating tube method

CCOCCOCCO [3,6-dioxa-1-octanol] + O showed a speed of sound (283.15 K, x1 = 0.9674) of 1430.8 ± 2.3 m/s, a speed of sound (283.15 K, x1 = 0.974) of 1430.3 ± 2.3 m/s and a speed of sound (283.15 K, x1 = 0.9826) of 1429.4 ± 2.3 m/s. For the same compound, the speed of sound (283.15 K, x1 = 0.9887) was 1429.6 ± 2.3 m/s, the speed of sound (283.15 K, x1 = 0.9899) was 1429.6 ± 2.3 m/s and the mass density (283.15 K, x1 = 0.9674) was 997.734 ± 2.1 kg/m3. The mass density (283.15 K, x1 = 0.974) was 997.587 ± 2.1 kg/m3, the mass density (283.15 K, x1 = 0.9826) was 997.387 ± 2.1 kg/m3 and the mass density (283.15 K, x1 = 0.9887) was 997.339 ± 2.1 kg/m3. It also gave a mass density (283.15 K, x1 = 0.9899) of 997.227 ± 2.1 kg/m3, a speed of sound (288.15 K, x1 = 0.9674) of 1412.8 ± 2.3 m/s and a speed of sound (288.15 K, x1 = 0.974) of 1412.2 ± 2.3 m/s. For the same compound, the speed of sound (288.15 K, x1 = 0.9826) was 1411.4 ± 2.3 m/s, the speed of sound (288.15 K, x1 = 0.9887) was 1411.4 ± 2.3 m/s and the speed of sound (288.15 K, x1 = 0.9899) was 1411.2 ± 2.3 m/s. It also gave a mass density (288.15 K, x1 = 0.9674) of 993.31 ± 2.1 kg/m3, a mass density (288.15 K, x1 = 0.974) of 993.16 ± 2.1 kg/m3 and a mass density (288.15 K, x1 = 0.9826) of 992.963 ± 2.1 kg/m3. It also gave a mass density (288.15 K, x1 = 0.9887) of 992.908 ± 2.1 kg/m3, a mass density (288.15 K, x1 = 0.9899) of 992.793 ± 2.1 kg/m3 and a speed of sound (293.15 K, x1 = 0.9674) of 1394.9 ± 2.3 m/s. The speed of sound (293.15 K, x1 = 0.974) was 1394.3 ± 2.3 m/s, the speed of sound (293.15 K, x1 = 0.9826) was 1393.5 ± 2.3 m/s and the speed of sound (293.15 K, x1 = 0.9887) was 1393.6 ± 2.3 m/s. For the same compound, the speed of sound (293.15 K, x1 = 0.9899) was 1393.3 ± 2.3 m/s, the mass density (293.15 K, x1 = 0.9674) was 988.877 ± 2.1 kg/m3 and the mass density (293.15 K, x1 = 0.974) was 988.725 ± 2.1 kg/m3. For the same compound, the mass density (293.15 K, x1 = 0.9826) was 988.528 ± 2.1 kg/m3, the mass density (293.15 K, x1 = 0.9887) was 988.475 ± 2.1 kg/m3 and the mass density (293.15 K, x1 = 0.9899) was 988.357 ± 2.1 kg/m3. For the same compound, the speed of sound (298.15 K, x1 = 0.9674) was 1377.3 ± 2.3 m/s, the speed of sound (298.15 K, x1 = 0.974) was 1376.5 ± 2.3 m/s and the speed of sound (298.15 K, x1 = 0.9826) was 1375.7 ± 2.3 m/s. For the same compound, the speed of sound (298.15 K, x1 = 0.9887) was 1375.7 ± 2.3 m/s, the speed of sound (298.15 K, x1 = 0.9899) was 1375.4 ± 2.3 m/s and the mass density (298.15 K, x1 = 0.9674) was 984.434 ± 2.1 kg/m3. It also gave a mass density (298.15 K, x1 = 0.974) of 984.285 ± 2.1 kg/m3, a mass density (298.15 K, x1 = 0.9826) of 984.088 ± 2.1 kg/m3 and a mass density (298.15 K, x1 = 0.9887) of 984.028 ± 2.1 kg/m3. The mass density (298.15 K, x1 = 0.9899) was 983.913 ± 2.1 kg/m3, the speed of sound (303.15 K, x1 = 0.9674) was 1359.6 ± 2.3 m/s and the speed of sound (303.15 K, x1 = 0.974) was 1358.8 ± 2.3 m/s. The speed of sound (303.15 K, x1 = 0.9826) was 1358 ± 2.3 m/s, the speed of sound (303.15 K, x1 = 0.9887) was 1357.9 ± 2.3 m/s and the speed of sound (303.15 K, x1 = 0.9899) was 1357.5 ± 2.3 m/s. For the same compound, the mass density (303.15 K, x1 = 0.9674) was 979.981 ± 2.1 kg/m3, the mass density (303.15 K, x1 = 0.974) was 979.829 ± 2.1 kg/m3 and the mass density (303.15 K, x1 = 0.9826) was 979.636 ± 2.1 kg/m3. The mass density (303.15 K, x1 = 0.9887) was 979.572 ± 2.1 kg/m3, the mass density (303.15 K, x1 = 0.9899) was 979.459 ± 2.1 kg/m3 and the speed of sound (308.15 K, x1 = 0.9674) was 1342 ± 2.3 m/s. The speed of sound (308.15 K, x1 = 0.974) was 1341.3 ± 2.3 m/s, the speed of sound (308.15 K, x1 = 0.9826) was 1340.5 ± 2.3 m/s and the speed of sound (308.15 K, x1 = 0.9887) was 1340.1 ± 2.3 m/s. The speed of sound (308.15 K, x1 = 0.9899) was 1340 ± 2.3 m/s, the mass density (308.15 K, x1 = 0.9674) was 975.514 ± 2.1 kg/m3 and the mass density (308.15 K, x1 = 0.974) was 975.363 ± 2.1 kg/m3. For the same compound, the mass density (308.15 K, x1 = 0.9826) was 975.164 ± 2.1 kg/m3, the mass density (308.15 K, x1 = 0.9887) was 975.102 ± 2.1 kg/m3 and the mass density (308.15 K, x1 = 0.9899) was 974.991 ± 2.1 kg/m3. The speed of sound (313.15 K, x1 = 0.9674) was 1324.4 ± 2.3 m/s, the speed of sound (313.15 K, x1 = 0.974) was 1323.9 ± 2.3 m/s and the speed of sound (313.15 K, x1 = 0.9826) was 1323.1 ± 2.3 m/s. It also gave a speed of sound (313.15 K, x1 = 0.9887) of 1322.7 ± 2.3 m/s, a speed of sound (313.15 K, x1 = 0.9899) of 1322.5 ± 2.3 m/s and a mass density (313.15 K, x1 = 0.9674) of 971.029 ± 2.1 kg/m3. It also gave a mass density (313.15 K, x1 = 0.974) of 970.88 ± 2.1 kg/m3, a mass density (313.15 K, x1 = 0.9826) of 970.684 ± 2.1 kg/m3 and a mass density (313.15 K, x1 = 0.9887) of 970.62 ± 2.1 kg/m3. The mass density (313.15 K, x1 = 0.9899) was 970.511 ± 2.1 kg/m3, the speed of sound (323.15 K, x1 = 0.9674) was 1289.8 ± 2.3 m/s and the speed of sound (323.15 K, x1 = 0.974) was 1289.3 ± 2.3 m/s. For the same compound, the speed of sound (323.15 K, x1 = 0.9826) was 1288.5 ± 2.3 m/s, the speed of sound (323.15 K, x1 = 0.9887) was 1287.9 ± 2.3 m/s and the speed of sound (323.15 K, x1 = 0.9899) was 1287.8 ± 2.3 m/s. The mass density (323.15 K, x1 = 0.9674) was 962.022 ± 2 kg/m3, the mass density (323.15 K, x1 = 0.974) was 961.873 ± 2.1 kg/m3 and the mass density (323.15 K, x1 = 0.9826) was 961.673 ± 2.1 kg/m3. It also gave a mass density (323.15 K, x1 = 0.9887) of 961.608 ± 2.1 kg/m3, a mass density (323.15 K, x1 = 0.9899) of 961.499 ± 2.1 kg/m3 and a speed of sound (333.15 K, x1 = 0.9674) of 1255.6 ± 2.3 m/s. The speed of sound (333.15 K, x1 = 0.974) was 1255 ± 2.3 m/s, the speed of sound (333.15 K, x1 = 0.9826) was 1254.2 ± 2.3 m/s and the speed of sound (333.15 K, x1 = 0.9887) was 1253.7 ± 2.3 m/s. It also gave a speed of sound (333.15 K, x1 = 0.9899) of 1253.5 ± 2.3 m/s, a mass density (333.15 K, x1 = 0.9674) of 952.945 ± 2 kg/m3 and a mass density (333.15 K, x1 = 0.974) of 952.794 ± 2 kg/m3. It also gave a mass density (333.15 K, x1 = 0.9826) of 952.591 ± 2.1 kg/m3, a mass density (333.15 K, x1 = 0.9887) of 952.534 ± 2.1 kg/m3 and a mass density (333.15 K, x1 = 0.9899) of 952.422 ± 2.1 kg/m3. It also gave a speed of sound (343.15 K, x1 = 0.9674) of 1221.7 ± 2.3 m/s, a speed of sound (343.15 K, x1 = 0.974) of 1221.1 ± 2.3 m/s and a speed of sound (343.15 K, x1 = 0.9826) of 1220.3 ± 2.3 m/s. The speed of sound (343.15 K, x1 = 0.9887) was 1220 ± 2.3 m/s, the speed of sound (343.15 K, x1 = 0.9899) was 1219.7 ± 2.3 m/s and the mass density (343.15 K, x1 = 0.9674) was 943.775 ± 2 kg/m3. The mass density (343.15 K, x1 = 0.974) was 943.629 ± 2 kg/m3, the mass density (343.15 K, x1 = 0.9826) was 943.425 ± 2.1 kg/m3 and the mass density (343.15 K, x1 = 0.9887) was 943.381 ± 2.1 kg/m3. The mass density (343.15 K, x1 = 0.9899) was 943.264 ± 2.1 kg/m3.
